Measurements taken from patent US11815511B2 (priority 2019, dated 2023).

What follows are compounds tested on anti-4,15-diacetoxyscirpenol monoclonal antibody secreted by hybridoma cell strain DAS5G11E7. Details: in ng/mL.
Assay type: binding, mouse

Compound | IC50
3-acetyldeoxynivalenol [3-acetyl-DON] | >100,000
CC1=C[C@H]2O[C@@H]3[C@H](O)C[C@](C)([C@@]2(CO)[C@H](O)C1=O)[C@]31CO1 [DON, Deoxynivalenol] | >100,000
C[C@@H]1Cc2c(Cl)cc(C(=O)N[C@@H](Cc3ccccc3)C(=O)O)c(O)c2C(=O)O1 [OTA, ochratoxin] | >100,000
HT-2 toxin | >100,000
